Source: patent publication US8034580B2, “Determining presence of antibiotic in a fluid” (DSM IP Assets B.V., priority 2003, dated 2011)

Assays:
Assay type in all cases: cell-based
[1] = tested on: microorganism of Delvotest® MCS test medium; assay: Delvotest MCS microbial inhibition test, sensitivity for different antibiotics, plate test or tube test (Example 2)
Procedure: […] The sensitivity for different antibiotics was determined by investigating two sets of six experiments using either a plate test or a tube test system. The sensitivity was determined by reading the test at the moment at which an antibiotic-free control changed color.

[2] = tested on: microorganism of Delvotest® MCS test medium; assay: Production scale Delvotest MCS microbiological inhibition test, sensitivity for different antibiotics (Example 4)
Procedure: Two series of test systems were prepared on production scale. The first series is a commercially available Delvotest® MCS and the second series is as the first with Bromocresol Purple replaced with Bromothymol Blue (160 mg·l^−1). The sensitivity for different antibiotics was determined reading the test at the moment at which an antibiotic-free control changed color. The results are in the Table below (sensitivity values in ppb).

[3] = tested on: microorganism of Delvotest® MCS test medium; assay: Delvotest MCS microbial inhibition test, sensitivity for penicillin G (Example 1)
Procedure: Commercially available Delvotest® MCS, prepared according to the methods described in EP 0005891, was adapted by the replacement of the indicator Bromocresol Purple by Bromothymol Blue (160 mg·l^−1). The sensitivity for penicillin G was determined by investigating samples containing different concentrations of penicillin G in different test systems. The results are summarized in the Table below (sensitivity values in ppb).

[4] = tested on: microorganism of Delvotest® MCS test medium; assay: Delvotest MCS type test systems with equal indicator concentration, sensitivity for penicillin G (Example 3)
Procedure: Two test systems were prepared. The first system differs only from a commercially available Delvotest® MCS in that the concentration of Bromocresol Purple is 160 mg·l^−1, and the second series is as the first with Bromocresol Purple replaced with Bromothymol Blue (160 mg·l^−1). The sensitivity for penicillin G was determined reading the test at the moment at which an antibiotic-free control changed color. From the results as shown in the Table below (sensitivity values in ppb) it can be seen that the sensitivity of Bromothymol Blue is better then that of Bromocresol Purple at the same concentrations of indicator.

[5] = indicator Bromocresol Purple (BP), experiment # 0
[6] = indicator Bromothymol Blue (160 mg·l^−1), plate test, experiment # 1
[7] = indicator Bromothymol Blue (160 mg·l^−1), plate test, experiment # 2
[8] = indicator Bromothymol Blue (160 mg·l^−1), plate test, experiment # 3
[9] = indicator Bromothymol Blue (160 mg·l^−1), plate test, experiment # 4
[10] = indicator Bromothymol Blue (160 mg·l^−1), plate test, experiment # 5
[11] = indicator Bromothymol Blue (160 mg·l^−1), plate test, experiment # 6
[12] = indicator Bromothymol Blue (160 mg·l^−1), tube test, experiment # 7
[13] = indicator Bromothymol Blue (160 mg·l^−1), tube test, experiment # 8
[14] = indicator Bromothymol Blue (160 mg·l^−1), tube test, experiment # 9
[15] = indicator Bromothymol Blue (160 mg·l^−1), tube test, experiment # 10
[16] = indicator Bromothymol Blue (160 mg·l^−1), tube test, experiment # 11
[17] = indicator Bromothymol Blue (160 mg·l^−1), tube test, experiment # 12
[18] = indicator Bromocresol Purple, Batch #1, three weeks after production
[19] = indicator Bromothymol Blue (160 mg·l^−1), Batch #1, three weeks after production

Molecule | sensitivity [1, 5] | sensitivity [1, 6] | sensitivity [1, 7] | sensitivity [1, 8] | sensitivity [1, 9] | sensitivity [1, 10] | sensitivity [1, 11] | sensitivity [1, 12] | sensitivity [1, 13] | sensitivity [1, 14] | sensitivity [1, 15] | sensitivity [1, 16] | sensitivity [1, 17] | sensitivity [2, 18] | sensitivity [2, 19] | other results
CC(=O)OCC1=C(C(=O)O)N2C(=O)[C@@H](NC(=O)CSc3ccncc3)[C@H]2SC1 [Cephapirin] | 8 ppb | 2 ppb | 2 ppb | 4 ppb | 6 ppb | 2 ppb | 4-6 ppb | 4 ppb | 4 ppb | 4 ppb | 4 ppb | 4 ppb | 4 ppb | 8 ppb | 4 ppb | 
Nc1ccc(S(=O)(=O)Nc2ncccn2)cc1 [Sulfadiazine] | 50 ppb | 50 ppb | 50 ppb | 50 ppb | 50 ppb | 50 ppb | 50 ppb | 50 ppb | 50 ppb | 50 ppb | 50 ppb | 50 ppb | 50 ppb |  |  | sensitivity with Bromothymol Blue in comparison with Bromocresol purple ([1]; comparison of the two indicators, in words): identical
CC1(C)S[C@@H]2[C@H](NC(=O)Cc3ccccc3)C(=O)N2[C@H]1C(=O)O [Penicillin G] | 3 ppb | 1 ppb | 2 ppb | 1 ppb | 1 ppb | 1-2 ppb | 1 ppb | 2 ppb | 2 ppb | 2 ppb | 2 ppb | 2 ppb | 2 ppb | 3 ppb | 2 ppb | sensitivity ([3]; indicator Bromocresol Purple, Penicillin G concentrations of 0, 1, 2, 3 and 4 ppb investigated): 3 ppb; sensitivity ([3]; indicator Bromocresol Purple, Penicillin G concentrations of 0, 2, 4 and 6 ppb investigated): 4 ppb; sensitivity ([3]; indicator Bromothymol Blue (160 mg·l^−1), Penicillin G concentrations of 0, 1, 2, 3 and 4 ppb investigated): 2 ppb; sensitivity ([3]; indicator Bromothymol Blue (160 mg·l^−1), Penicillin G concentrations of 0, 2, 4 and 6 ppb investigated): 2 ppb; sensitivity ([4]; indicator Bromocresol Purple (160 mg·l^−1)): 3 ppb; sensitivity ([4]; indicator Bromothymol Blue (160 mg·l^−1)): 2 ppb; sensitivity ([2]; indicator Bromocresol Purple, Batch #1, immediately after production): 3 ppb; sensitivity ([2]; indicator Bromothymol Blue (160 mg·l^−1), Batch #1, immediately after production): 2 ppb
CC1(C)S[C@@H]2[C@H](NC(=O)[C@H](N)c3ccccc3)C(=O)N2[C@H]1C(=O)O [Ampicillin] | 8 ppb | 2 ppb | 2 ppb | 2 ppb | 2 ppb | 2 ppb | 2 ppb | 2 ppb | 2 ppb | 2 ppb | 2 ppb | 2 ppb | 2 ppb | 6 ppb | 2 ppb | 
CC1(C)S[C@@H]2[C@H](NC(=O)[C@H](N)c3ccc(O)cc3)C(=O)N2[C@H]1C(=O)O [Amoxicillin] | 8 ppb | 4 ppb | 2 ppb | 2 ppb | 2 ppb | 2-4 ppb | 2 ppb | 4 ppb | 4 ppb | 4 ppb | 4 ppb | 4 ppb | 4 ppb | 8 ppb | 4 ppb | 
Neomycin | 600 ppb | 100 ppb | 100 ppb | 100 ppb | 100 ppb | 100 ppb | 100 ppb | 200 ppb | 200 ppb | 200 ppb | 200 ppb | 200 ppb | 200 ppb | 400 ppb | 200 ppb | 
Cc1onc(-c2ccccc2Cl)c1C(=O)N[C@@H]1C(=O)N2[C@@H]1SC(C)(C)[C@@H]2C(=O)O [Cloxacillin] | 40 ppb | 10 ppb | 10 ppb | 10 ppb | 10 ppb | 10 ppb | 10 ppb | 20 ppb | 20 ppb | 20 ppb | 20 ppb | 20 ppb | 20 ppb | 40 ppb | 20 ppb | 
